Two compounds from article PMC10860144, “Exploring the Dispersion and Electrostatic Components in Arene–Arene Interactions between Ligands and G4 DNA to Develop G4-Ligands” (Journal of Medicinal Chemistry, 2024) can be followed below.

Where two headings read alike, the source gives them in different places.

The test system of one experiment is THP-1 cell line. As to the kind of experiment: THP-1 cell viability (cytotoxicity). Type of experiment: cell-based, human. To be noted: read-out: Cell viability IC50 (THP1). On the procedure:
THP1 cell viability was measured according to a previously published procedure.[48] […]
Table S3. Cell permeability and cell viability for 5 and 27
Compound Cell-permeability Cell viability IC50 Cell viability IC50 Cell viability IC50
(X x 10-6 cm/s) (THP1) (µM) (HeLa) (µM) (IHTLCP) (µM) […]
THP1 cell viability was measured according to a previously published procedure.9

The next experiment relates to dsDNA (5'Cy5-ds26). As to the kind of experiment: MST with fluorescently labeled dsDNA. Type of experiment: binding. On the procedure: We next challenged the compounds’ G4 selectivity with a FRET melting competition assay using 5 (2 μM) and 27 (5 μM) with c-MYC Pu22 G4 DNA and increasing amounts of dsDNA (Figure 6D and Table S1). […] In addition, we investigated if we could detect any binding of the compounds to dsDNA using MST with a fluorescently labeled dsDNA (Table S1).
5′-Cy5 labeled G4 DNAs for this study were purchased from Eurofins Genomics. Stock solutions were prepared in water at 100 μM concentration. The sequences used are listed in Supporting Information Table S1. The G4 DNA sequences were folded in KCl buffer (10 mM phosphate, 100 mM KCl, pH 7.4) by heating at 95 °C for 5 min and then cooling to room temperature. All the experiments were performed in 10 mM phosphate pH 7.4, 100 mM KCl, and 0.05% Tween20. The labeled DNA concentration is held constant at 25 nM, and ligand concentration is varied depending on ligands Kd (16 1:3 dilutions). The samples were loaded into standard MST graded glass capillaries and initial fluorescence intensity of the capillary was measured using Monolith NT.115 (Nano Temper, Germany) with 20% LED power. The change in fluorescence with ligand’s concentrations were plotted in Excel and fitted through nonlinear equation to obtain the binding constants.

The target of the next experiment is G4 DNA (Pu22). As to the kind of experiment: Isothermal titration calorimetry (ITC), reverse titration. To be noted: G4 DNA titrated to ligand; 19 °C; one-site binding model. Also noted: species or system human. On the procedure:
Unfortunately, this was only possible using reverse titration, adding G4 DNA to the ligand, and a direct comparison to the MST binding affinities, which were performed by titrating the ligand to the G4, can thus not be performed. […] The reason why 5 is more efficient in stabilizing G4 DNA could instead be linked to the entropic penalty (−TΔS), which is less for 5 (1.85 kcal/mol) compared to 27 (3.2 kcal/mol).
ITC experiments were performed using a MicroCal ITC200 instrument (GE Healthcare). A buffer containing 10 mM potassium phosphate and 100 mM KCl of pH 7.4 was prepared. The sample cell was filled with a 20 μM ligand, and the syringe with 120 μM prefolded G4 DNA. […] The data was analyzed in MICROCAL PEAQ-ITC analysis software using a one-site binding mode. […]
The following settings were applied: temperature 19 °C, reference power 7 μcal/sec, initial delay 300 sec, stirring speed 1000 RPM, spacing 120 sec, filter 5 sec, first injection 0.5 μL for 1 sec then 2 μL for 4 sec for the subsequent injections, and high-feedback mode. The data was analyzed in MICROCAL PEAQ-ITC analysis software using a one-site binding mode.
Figure S20. Binding curves with their associated ΔG-, ΔH-, and -TΔS-values for compounds 5 and 27 for G4 DNA (Pu22) measured by ITC with a one-site binding model. […]
structure. […] Excitation sculpting was used in the 1D 1H experiments, and 256 scans were recorded. […]

The subject of a further experiment is c-MYC Pu22 G4 DNA. As to the kind of experiment: 1H NMR titration with c-MYC Pu22 G4 DNA. In kind it is binding, human. To be noted: DNA 90 μM; 298 K. From the text: To study the interactions of compounds 5 and 27 with G4 DNA in more detail, we performed a nuclear magnetic resonance (NMR) titration assay for both compounds with c-MYC Pu22 G4 DNA. In this assay, we monitored chemical shift alterations and the broadening of the well-defined imino protons from the G4 DNA located at 10–12 ppm in the NMR spectrum upon the addition of different compound concentrations. […] Although it is challenging to conclude the details of the binding interactions, the observed impact on the protons in the 3′ quartet for both compounds, especially compound 27, strongly implies the presence of an end-stacking type of interaction.
The G4 DNA stock solutions were prepared by folding 100 μM c-MYC Pu22 in 10 mM potassium phosphate buffer (pH = 7.4) and 35 mM KCl by heating at 95 °C for 10 min and cooling to ambient temperature overnight. 10% D2O was added to the DNA stock solutions, yielding a final DNA concentration of 90 μM. NMR samples were prepared by sequential addition of 5 or 27 from 2 or 10 mM DMSO-d6 stock solutions to 200 μL of the DNA solution which was then transferred to 3 mm NMR tubes. […] All spectra were recorded at 298 K on a Bruker 850 MHz Avance III HD spectrometer equipped with a 5 mm TCI cryoprobe. Excitation sculpting was used in the 1D 1H experiments, and 256 scans were recorded. Processing of spectra was performed in MestreNova 10.0.2.

The mark [1] stands for this setting: Homo sapiens, THP-1, THP-1 cell line.

Regarding `Cc1cc(C)c2nc(Nc3nc(C)cc(NCCCN(C)C)n3)nc(C)c2c1` [Compound 5, N4-(3-(Dimethylamino)propyl)-6-methyl-N2-(4,6,8-trimethylquinazolin-2-yl)pyrimidine-2,4-diamine], the IC50 – broadly, the concentration that inhibits the measured activity by half – turned out to be 2.89 µM with THP-1 cell line (setting [1]) and 2.9 µM with THP-1 cell line (THP-1 cell line). In the experiment with dsDNA (5'Cy5-ds26), the “binding to dsDNA (MST)” value is given as “no binding could be observed”. Moreover, binding at G4 DNA (Pu22) was characterised by a dissociation constant (Kd) of 0.88 µM. The “binding by NMR titration (imino protons)” value with c-MYC Pu22 G4 DNA is on record as “bind”.

In the case of `Cc1cc(C)c2nc(Nc3nc(C)cc(C)n3)nc(C)c2c1` [Compound 27, N-(4,6-Dimethylpyrimidin-2-yl)-4,6,8-trimethylquinazolin-2-amine], the IC50 in the experiment on THP-1 cell line (setting [1]) is greater than 50 µM; with THP-1 cell line (THP-1 cell line) it was no less than 50 µM. The “binding to dsDNA (MST)” value with dsDNA (5'Cy5-ds26) was “no binding could be observed”. Also, the affinity at G4 DNA (Pu22), expressed as Kd, was 1.04 µM. Further, the “binding by NMR titration (imino protons)” value with c-MYC Pu22 G4 DNA is reported as “bind”.
